Experimental findings from patent US9174964B2, “AMPK-activating piperidinyloxy-substituted 2,3-dihydro-1H-indene-1-amine compounds and pharmaceutical compositions including the same” (Rigel Pharmaceuticals, Inc., priority 2007, dated 2015) are described below.

Where a name gives a salt, the structure may show the parent alone. Some results are limits rather than exact numbers.

One assay has as its target AMPK. The assay is described as follows: AMPK activation, enzyme-linked immunosorbent assay. The assay is classed as biochemical. To be noted: Table 2, AMPK activation, ELISA. Here is the method:
Compounds 1-50 of Table 1 were assayed for their ability to activate AMPK using an enzyme-linked immunosorbent assay.
Compounds 51-60 of Table 1 were assayed for their ability to activate AMPK using an enzyme-linked immunosorbent assay.
Compounds 61-131 of Table 1 were assayed for their ability to activate AMPK using an enzyme-linked immunosorbent assay.
Compounds 137-141 and 143-155 of Table 1 were assayed for their ability to activate AMPK using an enzyme-linked immunosorbent assay.
Compounds 156-160 of Table 1 were assayed for their ability to activate AMPK using an enzyme-linked immunosorbent assay.
Background: In an ELISA, binding on a coated surface is turned into a signal by an enzyme label.
Broadly, the EC50 is the midpoint of the concentration-response curve. Turning to `N#Cc1ccc(CN2CC[C@H](NC(=O)c3ccc(OC4CCN(c5ccc(C(F)(F)F)cc5)CC4)cn3)C2)cc1` [Compound 31, (S)-N-(1-(4-cyanobenzyl)pyrrolidin-3-yl)-5-(1-(4-(trifluoromethyl)phenyl)piperidin-4-yloxy)picolinamide], the half-maximal effective concentration (EC50) is less than 100 nM.

Regarding `O=C(NC1CN(Cc2ccncc2)C1)c1ccc(OC2CCN(c3ccc(C(F)(F)F)cc3)CC2)cn1` [Compound 42, N-(1-(pyridin-4-ylmethyl)azetidin-3-yl)-5-(1-(4-(trifluoromethyl)phenyl)piperidin-4-yloxy)picolinamide], the EC50 is 1000 to 5000 nM.

With `O=C(NC1CCN(Cc2ccncc2)CC1)c1cc(OC2CCN(c3ccc(C(F)(F)F)cc3)CC2)ccn1` [Compound 13, N-(1-(pyridin-4-ylmethyl)piperidin-4-yl)-4-(1-(4-(trifluoromethyl)phenyl)piperidin-4-yloxy)picolinamide], the EC50 lay in the range of 100 to 500 nM. The compound `N#Cc1ccc(CN2CC[C@@H](NC(=O)c3ccc(OC4CCN(c5ccc(C(F)(F)F)cc5)CC4)cn3)C2)cc1` [Compound 33, (R)-N-(1-(4-cyanobenzyl)pyrrolidin-3-yl)-5-(1-(4-(trifluoromethyl)phenyl)piperidin-4-yloxy)picolinamide] returned an EC50 of 500 to 1000 nM. The same measure, in the same setting: under `CC(C)(C)OC(=O)N1CCC(NC(=O)c2ccnc(OC3CCN(c4ccc(C(F)(F)F)cc4)CC3)c2)CC1` [Compound 15, tert-butyl 4-(2-(1-(4-(trifluoromethyl)phenyl)piperidin-4-yloxy)isonicotinamido) piperidine-1-carboxylate] stands 1000 to 5000 nM; under `COC(=O)c1ccc(CN2CCC(NC(=O)c3ccc(OC4CCN(c5ccc(C(F)(F)F)cc5)CC4)cn3)CC2)cc1` [Compound 8, methyl 4-((4-(5-(1-(4-(trifluoromethyl)phenyl)piperidin-4-yloxy)picolinamido)piperidin-1-yl)methyl)benzoate], less than 100 nM. For the compound `O=C(NC1CCN(Cc2ccc(F)cc2)CC1)c1cncc(OC2CCN(c3ccc(C(F)(F)F)cc3)CC2)c1` [Compound 16, N-(1-(4-fluorobenzyl)piperidin-4-yl)-5-(1-(4-(trifluoromethyl)phenyl)piperidin-4-yloxy)nicotinamide], the EC50 was less than 100 nM. Still for that read-out and setting: under `O=C(NC1CCN(Cc2c[nH]cn2)CC1)c1ccc(OC2CCN(c3ccc(C(F)(F)F)cc3)CC2)cn1` [Compound 48, N-(1-((1H-imidazol-4-yl)methyl)piperidin-4-yl)-5-(1-(4-(trifluoromethyl)phenyl)piperidin-4-yloxy)picolinamide] stands 1000 to 5000 nM.

The same assay, now with this note: Table 3, AMPK activation, ELISA.
In turn, `O=S(=O)(NC1CCN(Cc2cccc(C(F)(F)F)c2)CC1)c1ccc(OC2CCN(c3ccc(C(F)(F)F)cc3)CC2)nc1` [Compound 59, N-(1-(3-(trifluoromethyl)benzyl)piperidin-4-yl)-6-(1-(4-(trifluoromethyl)phenyl)piperidin-4-yloxy)pyridine-3-sulfonamide] returned an EC50 of 100 to 500 nM. `N#Cc1ccc(N2CCC(Oc3ccc(S(=O)(=O)NC4CCN(Cc5ccncc5)CC4)cn3)CC2)cc1` [Compound 52, N-(1-(pyridin-4-ylmethyl)piperidin-4-yl)-6-(1-(4-cyanophenyl)piperidin-4-yloxy)pyridine-3-sulfonamide] yielded an EC50 of 100 to 500 nM.

The assay is the same for the next values; noted with them: Table 4, AMPK activation, ELISA.
Compound `O=C(NC1CCNCC1)c1cc2cc(OC3CCN(c4ccc(C(F)(F)F)cc4)CC3)ccc2o1` [Compound 86, N-(piperidin-4-yl)-5-(1-(4-(trifluoromethyl)phenyl)piperidin-4-yloxy)benzofuran-2-carboxamide hydrochloride] came in with an EC50 of more than 50000 nM. Compound `CN(C(=O)c1cc2cc(OC3CCN(c4ccc(C(F)(F)F)cc4)CC3)ccc2o1)C1CCN(C(=O)c2ccncc2)CC1` [Compound 118, N-(1-isonicotinoylpiperidin-4-yl)-N-methyl-5-(1-(4-(trifluoromethyl)phenyl)piperidin-4-yloxy)benzofuran-2-carboxamide] registered an EC50 of 100 to 500 nM. Same read-out and setting: under `N#Cc1ccccc1CN1CCC(NC(=O)c2cc3ccc(OC4CCN(c5ccc(C(F)(F)F)cc5)CC4)cc3o2)CC1` [Compound 98, N-(1-(2-cyanobenzyl)piperidin-4-yl)-6-(1-(4-(trifluoromethyl)phenyl)piperidin-4-yloxy)benzofuran-2-carboxamide] stands less than 100 nM; under `O=C(NC1CCN(Cc2ccccc2)CC1)c1cc2cc(OC3CCN(Cc4ccc(Cl)cc4)CC3)ccc2o1` [Compound 72, N-(1-benzylpiperidin-4-yl)-5-(1-(4-chlorobenzyl)piperidin-4-yloxy)benzofuran-2-carboxamide], 100 to 500 nM; under `CN(C(=O)c1cc2cc(OC3CCN(c4ccc(C(F)(F)F)cc4)CC3)ccc2o1)C1CCN(Cc2ccccc2C#N)CC1` [Compound 111, N-(1-(2-cyanobenzyl)piperidin-4-yl)-N-methyl-5-(1-(4-(trifluoromethyl)phenyl)piperidin-4-yloxy)benzofuran-2-carboxamide], 100 to 500 nM. On to `Cc1c(C(=O)NC2CCN(Cc3ccc(C#N)cc3)CC2)oc2cc(OC3CCN(c4ccc(C(F)(F)F)cc4)CC3)ccc12` [Compound 64, N-(1-(4-cyanobenzyl)piperidin-4-yl)-3-methyl-6-(1-(4-(trifluoromethyl)phenyl)piperidin-4-yloxy)benzofuran-2-carboxamide], for which the EC50 was less than 100 nM. The same measure, in the same setting: under `O=C(N[C@H]1CCN(Cc2ccncc2)C1)c1cc2cc(OC3CCN(Cc4ccc(Cl)cc4)CC3)ccc2o1` [Compound 129, (S)-5-(1-(4-chlorobenzyl)piperidin-4-yloxy)-N-(1-(pyridin-4-ylmethyl)pyrrolidin-3-yl)benzofuran-2-carboxamide] stands 1000 to 10000 nM.

Staying with this assay, now noted: Table 5, AMPK activation, ELISA.
The compound `O=C(NC1CCN(Cc2ccncc2)CC1)c1sc2cc(OC3CCN(c4ccc(C(F)(F)F)cc4)CC3)ccc2c1Cl` [Compound 151, 3-chloro-N-(1-(pyridin-4-ylmethyl)piperidin-4-yl)-6-(1-(4-(trifluoromethyl)phenyl)piperidin-4-yloxy)benzo[b]thiophene-2-carboxamide] displayed an EC50 of less than 100 nM. In turn, `CC(C)(C)OC(=O)N1CCC(NC(=O)c2cc3ccc(OC4CCN(c5ccc(C(F)(F)F)cc5)CC4)cc3s2)CC1` [Compound 140, tert-butyl 4-(6-(1-(4-(trifluoromethyl)phenyl)piperidin-4-yloxy)benzo[b]thiophene-2-carboxamido)piperidine-1-carboxylate] gave an EC50 of 500 to 1000 nM.

On to `N#Cc1ccccc1CN1CCC(NC(=O)c2cc3ccc(OC4CCN(c5ccc(C(F)(F)F)cc5)CC4)cc3s2)CC1` [Compound 146, N-(1-(2-cyanobenzyl)piperidin-4-yl)-6-(1-(4-(trifluoromethyl)phenyl)piperidin-4-yloxy)benzo[b]thiophene-2-carboxamide], for which the EC50 lay in the range of 100 to 500 nM. Take `N#Cc1ccc(CN2CCC(NC(=O)c3sc4cc(OC5CCN(c6ccc(C(F)(F)F)cc6)CC5)ccc4c3Cl)CC2)cc1` [Compound 154, 3-chloro-N-(1-(4-cyanobenzyl)piperidin-4-yl)-6-(1-(4-(trifluoromethyl)phenyl)piperidin-4-yloxy)benzo[b]thiophene-2-carboxamide]: the EC50 is less than 100 nM.

The assay is the same for the next values; noted with them: Table 6, AMPK activation, ELISA.
Compound `N#Cc1ccc(CN2CCC(NC3CCc4cc(OC5CCN(c6ccc(C(F)(F)F)cc6)CC5)ccc43)CC2)cc1` (stereo not shown) [Compound 160, 4-((4-(5-(1-(4-(trifluoromethyl)phenyl)piperidin-4-yloxy)-2,3-dihydro-1H-inden-1-ylamino)piperidin-1-yl)methyl)benzonitrile] displayed an EC50 of less than 500 nM.
